Results reported in patent publication US20080207705A1, “Heteroaryl-Imidazole Derivatives as Cannabinoid CB1 Receptor Antagonists” (Green Cross Corporation, priority 2007, published 2008).
Read-outs that look alike come from different tables or passages of the source.

Target: T1, rat CB-1 receptor (Rattus norvegicus, UniProt P20272)
T1 construct: The tissue obtained from the brain of SD rats was homogenized; from tissue; host or cells: brain of SD rats (membrane pellet of homogenate)
Assay: rat CB-1 receptor binding protocol with [3H]CP-55940

[1] = [3H]CP-55940, brain tissue of SD rats, 30 °C for 60 min, read-out: IC50

T1 sequence (P20272 whole entry): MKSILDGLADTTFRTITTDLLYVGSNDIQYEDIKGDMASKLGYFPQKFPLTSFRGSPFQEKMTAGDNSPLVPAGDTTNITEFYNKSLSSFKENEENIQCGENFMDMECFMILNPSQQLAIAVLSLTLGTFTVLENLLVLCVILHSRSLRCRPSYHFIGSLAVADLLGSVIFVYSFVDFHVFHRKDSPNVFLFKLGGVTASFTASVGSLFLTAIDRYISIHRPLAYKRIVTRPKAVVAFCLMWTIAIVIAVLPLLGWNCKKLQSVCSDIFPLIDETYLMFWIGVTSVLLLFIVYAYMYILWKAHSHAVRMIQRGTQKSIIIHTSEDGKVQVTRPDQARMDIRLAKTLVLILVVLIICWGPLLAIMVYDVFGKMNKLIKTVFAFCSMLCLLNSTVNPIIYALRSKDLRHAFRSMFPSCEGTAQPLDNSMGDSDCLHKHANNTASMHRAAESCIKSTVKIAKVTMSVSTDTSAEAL

SMILES	IC50 [1]	IC50
Cc1c(-c2nnc(C3(c4ccc(Cl)cc4)CC3)s2)nc(-c2ccc(Cl)cc2Cl)n1-c1ccc(Br)cc1 [Example 138, 2-(1-(4-Bromophenyl)-2-(2,4-dichlorophenyl)-5-methyl-1H-imidazol-4-yl)-5-(1-(4-chlorophenyl)cyclopropyl)-1,3,4-thiadiazole]	18.5 nM	
CCc1c(-c2nnc(C3(C(F)(F)F)CC3)s2)nc(-c2ccc(Cl)cc2Cl)n1-c1ccc(Br)cc1 [Example 139, 2-(1-(4-Bromophenyl)-2-(2,4-dichlorophenyl)-5-ethyl-1H-imidazol-4-yl)-5-(1-(trifluoromethyl)cyclopropyl)-1,3,4-thiadiazole]	15.9 nM	
Cc1c(-c2nnc(C3(C(F)(F)F)CC3)s2)nc(-c2ccccc2Cl)n1-c1ccc(Br)cc1 [Example 142, 2-(1-(4-Bromophenyl)-2-(2-chlorophenyl)-5-methyl-1H-imidazol-4-yl)-5-(1-(trifluoromethyl)cyclopropyl)-1,3,4-thiadiazole]	12.3 nM	
CCc1c(-c2nnc(C3(C(F)(F)F)CC3)s2)nc(-c2ccccc2Cl)n1-c1ccc(Br)cc1 [Example 146, 2-(1-(4-Bromophenyl)-2-(2-chlorophenyl)-5-ethyl-1H-imidazol-4-yl)-5-(1-(trifluoromethyl)cyclopropyl)-1,3,4-thiadiazole]	11.5 nM	
CCc1c(-c2nnc(C3(C(F)(F)F)CCC3)s2)nc(-c2ccccc2Cl)n1-c1ccc(Br)cc1 [Example 147, 2-(1-(4-Bromophenyl)-2-(2-chlorophenyl)-5-ethyl-1H-imidazol-4-yl)-5-(1-(trifluoromethyl)cyclobutyl)-1,3,4-thiadiazole]		5.33 nM
CC(C)(C)c1nnc(-c2nc(-c3ccc(Cl)cc3Cl)n(-c3ccc(Br)cc3)c2Cn2cncn2)s1 [Example 164, 2-(5-((1H-1,2,4-Triazol-1-yl)methyl)-1-(4-bromophenyl)-2-(2,4-dichlorophenyl)-1H-imidazol-4-yl)-5-tert-butyl-1,3,4-thiadiazole]	20.9 nM	
CC(C)(C)c1nnc(-c2nc(-c3ccccc3Cl)n(-c3ccc(Br)cc3)c2Cn2cncn2)s1 [Example 168, 2-(5-((1H-1,2,4-Triazol-1-yl)methyl)-1-(4-bromophenyl)-2-(2-chlorophenyl)-1H-imidazol-4-yl)-5-tert-butyl-1,3,4-thiadiazole]		4.01 nM
Cc1c(-c2ncc(C3CCCCC3)o2)nc(-c2ccc(Cl)cc2Cl)n1-c1ccc(Cl)cc1 [Example 180, 2-(1-(4-Chlorophenyl)-2-(2,4-dichlorophenyl)-5-methyl-1H-imidazol-4-yl)-5-cyclohexyloxazole]	78.6 nM	
CCc1cnc(-c2nc(-c3ccc(Cl)cc3Cl)n(-c3ccc(Cl)cc3)c2C)o1 [Example 181, 2-(1-(4-Chlorophenyl)-2-(2,4-dichlorophenyl)-5-methyl-1H-imidazol-4-yl)-5-ethyloxazole]	84 nM	
CCCCc1cnc(-c2nc(-c3ccc(Cl)cc3Cl)n(-c3ccc(Cl)cc3)c2C)o1 [Example 182, 5-Butyl-2-(1-(4-chlorophenyl)-2-(2,4-dichlorophenyl)-5-methyl-1H-imidazol-4-yl)oxazole]	11.6 nM	
Cc1c(-c2ncc(C(C)C)o2)nc(-c2ccc(Cl)cc2Cl)n1-c1ccc(Cl)cc1 [Example 183, 2-(1-(4-Chlorophenyl)-2-(2,4-dichlorophenyl)-5-methyl-1H-imidazol-4-yl)-5-isopropyloxazole]	26.4 nM	
Cc1c(-c2ncc(CC(C)C)o2)nc(-c2ccc(Cl)cc2Cl)n1-c1ccc(Cl)cc1 [Example 184, 2-(1-(4-Chlorophenyl)-2-(2,4-dichlorophenyl)-5-methyl-1H-imidazol-4-yl)-5-isobutyloxazole]	13.1 nM	
Cc1c(-c2ncc(C(C)(C)C)o2)nc(-c2ccc(Cl)cc2Cl)n1-c1ccc(Br)cc1 [Example 187, 2-(1-(4-Bromophenyl)-2-(2,4-dichlorophenyl)-5-methyl-1H-imidazol-4-yl)-5-tert-butyloxazole]	16.9 nM	
Cc1c(-c2nc(C(C)(C)C)co2)nc(-c2ccc(Cl)cc2Cl)n1-c1ccc(Cl)cc1 [Example 189, 4-tert-Butyl-2-(1-(4-chlorophenyl)-2-(2,4-dichlorophenyl)-5-methyl-1H-imidazol-4-yl)oxazole]	88.3 nM	
CCc1c(-c2nc(C(C)(C)C)co2)nc(-c2ccc(Cl)cc2Cl)n1-c1ccc(Cl)cc1 [Example 190, 4-tert-Butyl-2-(1-(4-chlorophenyl)-2-(2,4-dichlorophenyl)-5-ethyl-1H-imidazol-4-yl)oxazole]	119 nM	
CCc1c(-c2nc(C(C)(C)C)co2)nc(-c2ccc(Cl)cc2Cl)n1-c1ccc(Br)cc1 [Example 191, 2-(1-(4-Bromophenyl)-2-(2,4-dichlorophenyl)-5-ethyl-1H-imidazol-4-yl)-4-tert-butyloxazole]	30 nM	
CCc1oc(-c2nc(-c3ccc(Cl)cc3Cl)n(-c3ccc(Cl)cc3)c2C)nc1C [Example 192, 2-(1-(4-Chlorophenyl)-2-(2,4-dichlorophenyl)-5-methyl-1H-imidazol-4-yl)-5-ethyl-4-methyloxazole]	77.9 nM	
Cc1c(-c2ncc(C3CCCCC3)s2)nc(-c2ccc(Cl)cc2Cl)n1-c1ccc(Cl)cc1 [Example 193, 2-(1-(4-Chlorophenyl)-2-(2,4-dichlorophenyl)-5-methyl-1H-imidazol-4-yl)-5-cyclohexylthiazole]	74.5 nM	
CCc1cnc(-c2nc(-c3ccc(Cl)cc3Cl)n(-c3ccc(Cl)cc3)c2C)s1 [Example 194, 2-(1-(4-Chlorophenyl)-2-(2,4-dichlorophenyl)-5-methyl-1H-imidazol-4-yl)-5-ethylthiazole]	70.2 nM	
CCCCc1cnc(-c2nc(-c3ccc(Cl)cc3Cl)n(-c3ccc(Cl)cc3)c2C)s1 [Example 195, 5-Butyl-2-(1-(4-chlorophenyl)-2-(2,4-dichlorophenyl)-5-methyl-1H-imidazol-4-yl)thiazole]	63.3 nM	
Cc1c(-c2ncc(C(C)C)s2)nc(-c2ccc(Cl)cc2Cl)n1-c1ccc(Cl)cc1 [Example 196, 2-(1-(4-Chlorophenyl)-2-(2,4-dichlorophenyl)-5-methyl-1H-imidazol-4-yl)-5-isopropylthiazole]	16 nM	

Continued, in another order:

IC50 [1]	SMILES	IC50
8.52 nM	Cc1c(-c2nnc(C3(C(F)(F)F)CCC3)s2)nc(-c2ccc(Cl)cc2Cl)n1-c1ccc(Br)cc1 [Example 137, 2-(1-(4-Bromophenyl)-2-(2,4-dichlorophenyl)-5-methyl-1H-imidazol-4-yl)-5-(1-(trifluoromethyl)cyclobutyl)-1,3,4-thiadiazole]	
6.74 nM	CCc1c(-c2nnc(C3(C(F)(F)F)CCC3)s2)nc(-c2ccc(Cl)cc2Cl)n1-c1ccc(Br)cc1 [Example 140, 2-(1-(4-Bromophenyl)-2-(2,4-dichlorophenyl)-5-ethyl-1H-imidazol-4-yl)-5-(1-(trifluoromethyl)cyclobutyl)-1,3,4-thiadiazole]	
10.7 nM	Cc1c(-c2nnc(C(C)(C)C)s2)nc(-c2ccccc2Cl)n1-c1ccc(Br)cc1 [Example 141, 2-(1-(4-Bromophenyl)-2-(2-chlorophenyl)-5-methyl-1H-imidazol-4-yl)-5-tert-butyl-1,3,4-thiadiazole]	
2.18 nM	Cc1c(-c2nnc(C3(c4ccc(Cl)cc4)CC3)s2)nc(-c2ccccc2Cl)n1-c1ccc(Br)cc1 [Example 144, 2-(1-(4-Bromophenyl)-2-(2-chlorophenyl)-5-methyl-1H-imidazol-4-yl)-5-(1-(4-chlorophenyl)cyclopropyl)-1,3,4-thiadiazole]	
4.93 nM	CCc1c(-c2nnc(C3(c4ccc(Cl)cc4)CC3)s2)nc(-c2ccccc2Cl)n1-c1ccc(Br)cc1 [Example 148, 2-(1-(4-Bromophenyl)-2-(2-chlorophenyl)-5-ethyl-1H-imidazol-4-yl)-5-(1-(4-chlorophenyl)cyclopropyl)-1,3,4-thiadiazole]	
5.59 nM	FC(F)(F)C1(c2nnc(-c3nc(-c4ccc(Cl)cc4Cl)n(-c4ccc(Br)cc4)c3Cn3cncn3)s2)CC1 [Example 165, 2-(5-((1H-1,2,4-Triazol-1-yl)methyl)-1-(4-bromophenyl)-2-(2,4-dichlorophenyl)-1H-imidazol-4-yl)-5-(1-(trifluoromethyl)cyclopropyl)-1,3,4-thiadiazole]	
1.7 nM	FC(F)(F)C1(c2nnc(-c3nc(-c4ccc(Cl)cc4Cl)n(-c4ccc(Br)cc4)c3Cn3cncn3)s2)CCC1 [Example 166, 2-(5-((1H-1,2,4-Triazol-1-yl)methyl)-1-(4-bromophenyl)-2-(2,4-dichlorophenyl)-1H-imidazol-4-yl)-5-(1-(trifluoromethyl)cyclobutyl)-1,3,4-thiadiazole]	
3.91 nM	Clc1ccc(C2(c3nnc(-c4nc(-c5ccc(Cl)cc5Cl)n(-c5ccc(Br)cc5)c4Cn4cncn4)s3)CC2)cc1 [Example 167, 2-(5-((1H-1,2,4-Triazol-1-yl)methyl)-1-(4-bromophenyl)-2-(2,4-dichlorophenyl)-1H-imidazol-4-yl)-5-(1-(4-chlorophenyl)cyclopropyl)-1,3,4-thiadiazole]	
4.73 nM	FC(F)(F)C1(c2nnc(-c3nc(-c4ccccc4Cl)n(-c4ccc(Br)cc4)c3Cn3cncn3)s2)CC1 [Example 169, 2-(5-((1H-1,2,4-Triazol-1-yl)methyl)-1-(4-bromophenyl)-2-(2-chlorophenyl)-1H-imidazol-4-yl)-5-(1-(trifluoromethyl)cyclopropyl)-1,3,4-thiadiazole]	
1.75 nM	FC(F)(F)C1(c2nnc(-c3nc(-c4ccccc4Cl)n(-c4ccc(Br)cc4)c3Cn3cncn3)s2)CCC1 [Example 170, 2-(5-((1H-1,2,4-Triazol-1-yl)methyl)-1-(4-bromophenyl)-2-(2-chlorophenyl)-1H-imidazol-4-yl)-5-(1-(trifluoromethyl)cyclobutyl)-1,3,4-thiadiazole]	
1.8 nM	Clc1ccc(C2(c3nnc(-c4nc(-c5ccccc5Cl)n(-c5ccc(Br)cc5)c4Cn4cncn4)s3)CC2)cc1 [Example 171, 2-(5-((1H-1,2,4-Triazol-1-yl)methyl)-1-(4-bromophenyl)-2-(2-chlorophenyl)-1H-imidazol-4-yl)-5-(1-(4-chlorophenyl)cyclopropyl)-1,3,4-thiadiazole]	
8.98 nM	CCc1c(-c2ncc(C(C)(C)C)o2)nc(-c2ccc(Cl)cc2Cl)n1-c1ccc(Br)cc1 [Example 188, 2-(1-(4-Bromophenyl)-2-(2,4-dichlorophenyl)-5-ethyl-1H-imidazol-4-yl)-5-tert-butyloxazole]	
